Columns and labels:
ASIC1a [1] = molecular target: T1, ASIC1a (Homo sapiens, UniProt P78348); assay: Calcium imaging of MES-induced calcium response (FLIPR); assay type: cell-based; design: host or cells: HEK293; conditions: ASIC1a expressing HEK293 cells, MES-induced calcium response; read-out: IC50 (FLIPR)
T1 sequence (P78348 1-528): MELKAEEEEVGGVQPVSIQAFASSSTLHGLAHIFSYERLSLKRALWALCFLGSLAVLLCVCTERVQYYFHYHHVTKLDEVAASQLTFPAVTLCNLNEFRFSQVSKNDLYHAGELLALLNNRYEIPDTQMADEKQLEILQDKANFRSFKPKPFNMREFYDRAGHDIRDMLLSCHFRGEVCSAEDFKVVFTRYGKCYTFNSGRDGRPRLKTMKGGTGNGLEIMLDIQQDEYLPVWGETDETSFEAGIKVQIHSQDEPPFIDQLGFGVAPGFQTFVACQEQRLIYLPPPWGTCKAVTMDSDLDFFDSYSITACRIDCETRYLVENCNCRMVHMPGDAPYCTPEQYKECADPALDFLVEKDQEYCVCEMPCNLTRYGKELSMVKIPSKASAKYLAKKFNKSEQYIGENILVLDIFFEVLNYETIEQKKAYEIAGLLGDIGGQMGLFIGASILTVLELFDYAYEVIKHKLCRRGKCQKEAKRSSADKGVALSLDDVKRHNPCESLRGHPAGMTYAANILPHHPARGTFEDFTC
Experimental: […] Confluency of cells should be 80-90% on day of plating. Cells are rinsed with 10 ml of PBS and cells are re-suspended by addition of culture medium and trituration with a 25 ml pipette.
The cells are seeded at a density of approximately 1×10^6 cells/ml (100 μl/well) in black-walled, clear bottom, 96-well plates pre-treated with 10 mg/l poly-D-lysin (75 μl/well for ≧30 min). Plated cells are allowed to proliferate for 24 h before loading with dye.
Fluo-4/AM (1 mg, Molecular Probes) is dissolved in 912 μl DMSO. The Fluo-4/AM stock solution (1 mM) is diluted with culture medium to a final concentration of 2 μM (loading solution).
The culture medium is aspirated from the wells, and 50 μl of the Fluo-4/AM loading solution is added to each well. The cells are incubated at 37° C. for 30 min.
Following the second wash, 100 μl modified Assay Buffer is added to each well and the fluorescence is measured in FLIPR™ or FlexStation™ (Molecular Devices, USA), or any other suitable equipment known to the skilled in the art.
Temperature: Room temperature (20-22° C.)
First addition: 50 μl test solution at a rate of 30 μl/sec and a starting height of […]
Second addition: 50 μl MES solution (20 mM, 5 mM final concentration) at a rate of 35 μl/sec and a starting height of 150 μl.
Reading intervals: pre-incubation−10 sec×7 and 3 sec×3 antagonist phase−3 sec×7 and 10 sec×12
Addition plates (compound test plate and MES plate) are placed on the right and left positions in the FLIPR tray, respectively. Cell plates are placed in the middle position and the ASIC1a program is effectuated. FLIPR will then take the appropriate measurements in accordance with the interval settings above. Fluorescence obtained after stimulation is corrected for the mean basal fluorescence (in modified Assay Buffer).
The MES-induced peak calcium response, in the presence of test substance, is expressed relatively to the MES response alone. Test substances that block the MES-induced calcium response are re-tested in triplicates.

ASIC1a [2] = molecular target: T1, ASIC1a; assay: Two-electrode voltage clamp in Xenopus laevis oocytes (Xo), acid-induced currents; assay type: cell-based; design: expressed in transfected cells; host or cells: Xenopus laevis oocytes (nuclear microinjection of expression vector such as pcDNA3); conditions: Xenopus oocytes; for inhibition at 50 µM: read-out: % inh. at 50 μM (Xo)
Experimental: Two-electrode voltage clamp electrophysiological assays in Xenopus laevis oocytes expressing gated ion channels are performed as follows:
Oocytes are surgically removed from adult Xenopus laevis and treated for 2 h at room temperature with 1 mg/ml type I collagenase (Sigma) in Barth's solution under mild agitation. Selected oocytes at stage IV-V are defolliculated manually before nuclear microinjection of 2.5-5 ng of a suitable expression vector, such as pcDNA3, comprising the nucleotide sequence encoding a gated ion channel subunit protein. In such an experiment, the oocytes express homomultimeric proton-gated ion channels on their surface. In an alternate experiment, one, two, three or more vectors comprising the coding sequences for distinct gated ion channel subunits are co-injected in the oocyte nuclei. In the latter case, oocytes express heteromultimeric proton-gated ion channels. For example, ASIC2a and/or ASIC3 subunits in pcDNA3 vector are co-injected at a 1:1 cDNA ratio. After 2-4 days of expression at 19° C. in Barth's solution containing […] gentamicin and 1.8 mM CaCl2, gated ion channels are activated by applying an acidic solution (pH<7) and currents are recorded in a two electrode voltage-clamp configuration, using an OC-725B amplifier (Warner Instruments). Currents are acquired and digitized at 500 Hz on an Apple Imac G3 computer with an A/D NB-MIO-16XL interface (National Instruments) and recorded traces are post-filtered at 100 Hz in Axograph (Axon Instruments) (Neher, E. and Sakmann, B. (1976) Nature 260:799-802). Once impaled with the microelectrodes, oocytes are continuously superfused at 10-12 ml/min with a modified Ringer's solution containing 97 mM NaCl, 2 mM KCl, 1.8 mM CaCl2, and 10 mM HEPES brought to pH 7.4 with NaOH (Control Ringer). Test Ringer solution is prepared by replacing HEPES with MES and adjusting the pH to the desired acidic value. Compounds of the present invention are prepared in both the Control and Test Ringer solutions and applied to oocytes at room temperature through a computer-controlled switching valve system. Osmolarity of all solutions is adjusted to 235 mOsm with choline chloride. Similarly, recordings can also be acquired in an automated multichannel oocytes system as the OpusExpress™ (Molecular Devices, Sunnyvale, USA).
FIGS. 1A and 2A illustrate the inhibitory effects of Compounds 203 and 206 on acid-induced activation of recombinant homomeric hASIC1a channels.

Row | IC50 (ASIC1a [1]) [µM] | inhibition at 50 µM (ASIC1a [2]) [%] | inhibition at 100 µM (ASIC1a [2]; 100 μM, read-out: % inh. at 100 μM (Xo)) [%] | Structure (SMILES)
1 | > 70 | < 25 | – | CC(=O)Nc1c(C(=O)O)cc(-c2ccccc2)c2c1CN(C)CC2 [Compound 144]
2 | > 70 | < 25 | – | CCOC(=O)C(=O)Nc1ccc(-c2ccccc2)c2c1CN(C(=O)OCC)CC2 [Compound 125]
3 | > 70 | < 25 | – | CCOC(=O)N1CCc2c(Br)ccc(NCC(=O)OC)c2C1 [Compound 158]
4 | 40 to 60 | < 25 | – | CN1CCc2c(-c3ccccc3)cc3c(c2C1)NC(=O)/C3=N\NC(N)=O [Compound 103]
5 | 20 to 40 | 20 to 30 | – | [H]/N=C(\N)N/N=C1/C(=O)Nc2c1cc(-c1ccccc1)c1c2CN(C)CC1 [Compound 105]
6 | > 70 | < 25 | – | COC(=O)c1ccc(-c2ccccc2)c2c1CN(C(=O)OC(C)(C)C)CC2 [Compound 177]
7 | > 70 | – | 30 to 50 | CCOC(=O)N1CCc2c(Br)ccc(N)c2C1 [Compound 160]
8 | > 70 | < 25 | – | CC(C)(C)OC(=O)N1CCc2c(-c3ccccc3)ccc(C(N)=O)c2C1 [Compound 181]
9 | > 70 | < 25 | – | CN1CCc2c(-c3ccccc3)ccc(Nc3ncccc3C(=O)O)c2C1 [Compound 150]
10 | – | < 25 | – | COc1ccc(F)cc1-c1cc(C#N)c(N2C(=O)CCC2=O)c2c1CCN(C)C2 [Compound 211]
11 | – | < 25 | – | CC(=O)NN=C1C(=O)Nc2c1cc(-c1ccccc1)c1c2CN(C)CC1 [Compound 112]
12 | – | < 25 | – | CCN(CC)C(=O)c1cc(-c2cc(F)ccc2OC)cc(C)c1NC(=O)N1CCN(C(C)C)CC1 [Compound 193, 4-Isopropyl-piperazine-1-carboxylic acid (5-diethylcarbamoyl-5′-fluoro-2′-methoxy-3-methyl-biphenyl-4-yl)-amide]
13 | – | < 25 | – | COc1ccc(F)cc1-c1cc(C#N)c(N(C(C)=O)C(C)=O)c2c1CCN(C)C2 [Compound 194, N-Acetyl-N-[7-cyano-5-(5-fluoro-2-methoxy-phenyl)-2-methyl-1,2,3,4-tetrahydro-isoquinolin-8-yl]-acetamide]
14 | – | < 25 | – | COC(=O)CNc1ccc(-c2ccccc2)c2c1CN(C(=O)OC(C)(C)C)CC2 [Compound 167]
15 | – | < 25 | – | CCN(CC)C(=O)c1cc(-c2cc(F)ccc2OC)cc(C)c1N [Compound 188, 4-Amino-5′-fluoro-2′-methoxy-5-methyl-biphenyl-3-carboxylic acid diethylamide]
16 | – | < 25 | – | CCN1CCc2c(-c3ccccc3)cc3[nH]c(=O)[nH]c3c2C1 [Compound 222]
17 | – | < 25 | – | CNN=C1C(=O)Nc2c1cc(-c1ccccc1)c1c2CN(C)CC1 [Compound 108]

More lines, now with the values behind:

Row | Structure (SMILES) | IC50 (ASIC1a [1]) [µM] | inhibition at 50 µM (ASIC1a [2]) [%] | inhibition at 100 µM (ASIC1a [2]; 100 μM, read-out: % inh. at 100 μM (Xo)) [%]
18 | CN1CCc2c(-c3ccccc3)ccc(NCCO)c2C1 [Compound 143] | > 70 | < 25 | –
19 | Cc1nc2c3c(c(-c4ccccc4)cc2c(=O)o1)CCN(C)C3 [Compound 97] | > 70 | < 25 | –
20 | COC(=O)c1cc(-c2ccccc2)c2c(c1C(=O)OC)CN(C)CC2 [Compound 180] | > 70 | < 25 | –
21 | COC(=O)CC(=O)Nc1ccc(-c2ccccc2)c2c1CN(C)CC2 [Compound 137] | > 70 | < 25 | –
22 | CN1CCc2c(-c3ccccc3)cc3c(O)cc(=O)[nH]c3c2C1 [Compound 94] | > 70 | < 25 | –
23 | CN1CCc2c(-c3ccccc3)cc3c(c2C1)NC(=O)/C3=C1\CCCN1C [Compound 93] | > 70 | < 25 | –
24 | CN1CCc2c(-c3ccccc3)cc3c(c2C1)NCC31OCCO1 [Compound 77] | > 70 | < 25 | –
25 | CN1CCc2c(-c3ccccc3)cc3c(c2C1)NC(=O)/C3=C/c1ccccc1O [Compound 86] | > 70 | < 25 | –
26 | COC(=O)c1cc(-c2ccccc2)c2c(c1N)CN(C)CC2 [Compound 142] | > 70 | < 25 | –
27 | CN1CCc2c(-c3ccccc3)ccc(NC(=O)CCO)c2C1 [Compound 131] | > 70 | < 25 | –
28 | CN1CCc2c(-c3ccccc3)cc3cc[nH]c3c2C1 [Compound 78] | > 70 | < 25 | –
29 | CCOC(=O)/C=C1/C(=O)Nc2c1cc(-c1ccccc1)c1c2CN(C)CC1 [Compound 92] | > 70 | < 25 | –
30 | CCOC(=O)CNCc1ccc(-c2ccccc2)c2c1CN(C)CC2 [Compound 118] | > 70 | < 25 | –
31 | CN1CCc2c(-c3ccccc3)cc3c(c2C1)NC(=O)/C3=N/N [Compound 102] | 20 to 40 | > 50 | –
32 | CN1CCc2c(-c3ccccc3)cc3c(c2C1)NC(=O)/C3=C/c1ccccn1 [Compound 90] | > 70 | < 25 | –
33 | COCCOCN1C(=O)/C(=N/O)c2cc(-c3ccccc3)c3c(c21)CN(C)CC3 [Compound 66] | – | 20 to 40 | –
34 | CC(=O)OCCOCO/N=C1/C(=O)Nc2c1cc(-c1ccccc1)c1c2CN(C)CC1 [Compound 64] | – | < 25 | –
35 | CN1CCc2c(-c3ccccc3)cc3c(c2C1)NCC/C3=N/O [Compound 96] | – | 20 to 40 | –
36 | COC(=O)CNc1ccc(-c2ccccc2)c2c1CN(C)CC2 [Compound 205, (2-Methyl-5-phenyl-1,2,3,4-tetrahydro-isoquinolin-8-ylamino)-acetic acid methyl ester] | – | 20 to 40 | –
37 | COC(=O)c1ccccc1CO/N=C1/C(=O)Nc2c1cc(-c1ccccc1)c1c2CN(C)CC1 [Compound 65] | – | 20 to 40 | –
38 | COc1ccc(F)cc1-c1cc(C#N)c(NC(C)=O)c2c1CCN(C)C2 [Compound 195, N-[7-Cyano-5-(5-fluoro-2-methoxy-phenyl)-2-methyl-1,2,3,4-tetrahydro-isoquinolin-8-yl]-acetamide] | – | 25 to 40 | –
39 | COc1ccc(F)cc1-c1cc(/C(N)=N/O)c(N)c2c1CCN(C)C2 [Compound 208] | – | 20 to 40 | –
40 | COc1ccc(F)cc1Oc1cc2c(c3c1CCN(C)C3)NC(=O)/C2=N/O [Compound 12] | – | 50 to 70 | –

— US20080004272A1, “Compositions and methods for modulating gated ion channels” (PainCeptor Pharma Corporation, priority 2006, published 2008)
